Test results from the pKa sets of Baltruschat and Czodrowski (2020).

conditions: acidic group

SMILES	pKa
O=C(O)C(=O)c1ccccc1	1.22
O=C(C[n+]1ccccc1)c1ccccc1	10.9
CC1=CC(C)=Nc2ccc(C)cc2N1	5.8
CC(C)(C)CCCC(=O)O	4.88
O=NNc1nc([N+](=O)[O-])nn1-c1ccccc1	3.33
CC(O)CC(=O)O (centres undefined)	4.5
NC(=O)CC(=O)c1ccncc1	7.91
COc1cc(C(=O)O)cc(OC)c1O	4.2
Cc1cc(O)nn1-c1ccccc1C(=O)N1CCCCC1	12.4
CCn1cccc(O)c1=O	8.99
O=C(O)c1ccc(/C=C/[N+](=O)[O-])cc1	3.94
Oc1c(I)cc(I)c2cccnc12	8
[NH3+][C@@H](Cc1nc(I)[nH]c1I)C(=O)[O-]	8.18
O=[N+]([O-])c1cccc(/C=N\O)c1	10.7
O=Cc1cc(Br)ccc1O	7.4
Nc1ccc(S(=O)(=O)Nc2cccc[n+]2[O-])cc1	5.2
Oc1ccc2cccc(-c3ccccc3)c2c1	9.38
Oc1cc[n+](O)cc1	2.4
C#CCCC(=O)O	4.2
NC(=O)CNCCCNCC(N)=O	7.27
CC1=NS(=O)(=O)c2cnccc2N1	7.6
Oc1cc[nH+]cc1O	3.6
[NH3+]c1cccc(O[C@H]2O[C@@H](C(=O)O)[C@H](O)[C@@H](O)[C@@H]2O)c1	2.97
CC(=O)[n+]1ccccc1	5.32
CCC[Si](C)(CCC)CC(=O)O	5.65

SMILES	pKa
Cc1cccc(I)c1C(=O)O	2.7
Cc1ccc(C(=O)O)cc1Cl	4.06
Cc1csc(-c2ccc(NS(=O)(=O)c3ccc(N)cc3)cc2)n1	8.5
Cc1ccc(C(=O)c2ccccc2C(=O)O)cc1	3.64
O=C(O)CNC(=O)c1cccc(O)c1O	3.5
COc1ccccc1CCC(=O)O	4.8
Oc1cncc2ccccc12	8.68
[NH3+]C(Cc1n[nH]c2ccccc12)C(=O)O (centres undefined)	2.2
COc1ccc(C)c(C(=O)O)c1	3.84
O=C(O)c1ccc([N+](=O)[O-])cc1O	1.83
CC(C)c1ccc2c(c1)CC[C@H]1[C@](C)(C(=O)O)CCC[C@]21C	5.7
O=CC(c1ccccc1)c1ccccc1	9.39
Cn1c(=S)[nH]c2cncnc21	7.48
Oc1cc(-c2ccccc2)n[nH]1	11.4
O=C(C[N+](=O)[O-])c1ccccc1	5.19
NC(=O)C(N)Cc1ccccc1 (centres undefined)	7.33
C[NH+](C)Cc1cc(Br)ccc1O	7.58
CN(C)c1cccc[n+]1O	2.27
Cc1cc(Cc2cc(O)ccc2C)c([O-])c([N+](=O)[O-])c1	10.4
Sc1nc2[nH]cnc2c[nH+]1	0.5
C/C=C/CCC(=O)O	4.72
Nc1ccc(-c2nnn[nH]2)cc1	4.55
CN(C)c1cccc2c(S(=O)(=O)NCC(=O)O)cccc12	4.4
O=C(O)/C=C/C(=O)CC(=O)CC(=O)O	3.6
CCC(CC)C(=O)O[C@H]1O[C@@H](C(=O)O)[C@H](O)[C@@H](O)[C@@H]1O	3.37

SMILES	pKa
Nc1ccc(S(=O)(=O)Nc2ccc(N)cn2)cc1	8.47
[O-]c1nc(S)c2[nH]cnc2n1	11.4
COc1cccc(C(=O)O)c1	4.06
[O-]c1ccc(O)n[nH+]1	5.73
Cc1ccc(C(O)C(C(=O)O)c2ccc(-c3ccccc3)cc2)cc1 (centres undefined)	4.24
C[N+](C)(C)c1ccc(O)cc1	8.25
[NH3+]CCC[SeH]	6.27
CCN(CC)C(=S)NC(=O)c1ccc(F)cc1	8.13
OC[C@@H]1O[C@@H]2NC(=S)O[C@@H]2[C@H]1O	9.48
COc1cccc(C(=O)O)c1C	3.72
Cc1cccc(C(=O)[O-])c1O	14.4
Cn1c(=O)[nH]c2ncn(C)c2c1=O	8.65
CONC(=O)c1ccccc1	8.89
O=C(O)[C@@H]1O[C@H](Oc2c[nH+]c3ccccc3c2)[C@@H](O)[C@H](O)[C@H]1O	3
O=c1[nH]c(=O)n(-c2ccccc2)[nH]1	4.9
COc1cc(S(C)=O)ccc1-c1nc2nnccc2[nH]1 (centres undefined)	8.71
C=C1CC1C[C@H]([NH3+])C(=O)O (some centres undefined)	2.4
Cc1cc(Cc2cc(C)c(O)c(C)c2)c(O)c([N+](=O)[O-])c1	7.98
Nc1nnn[nH]1	5.98
O=[Se](O)c1ccc2ccccc2c1	4.67
Cc1ncc2c(c1O)C(O)OC2 (centres undefined)	8.75
Cc1cc([N+](=O)[O-])cc(C)c1O	7.22
CC(C)C1NC(=S)NC1=O (centres undefined)	8.7
C[NH+](C)CCc1nnn[nH]1	4.59
Cc1cccc(C(C)C)c1O	10.8

same assay, conditions: basic group

SMILES	pKa
CN(C)CC(=O)[O-]	9.81
Cc1noc(C)c1C	-1
CC(C)(C)n1ccnc1	7.35
CC1=CC(C)=Nc2ccc(C)cc2N1	3.5
NC(=O)CN(CC[NH+](CC(N)=O)Cc1ccccc1O)Cc1ccccc1O	1.89
O=[N+]([O-])c1ccc(/C=C/c2nnnn2-c2ccc([N+](=O)[O-])cc2)cc1	-3.15
COc1ccc(NCCS)cc1	5.3
c1ccc(CN(CC2=NCCN2)c2ccccc2)cc1	10.1
C=CCN(CC=C)CC=C	8.31
c1ccc(-c2cc3cccnc3c3ncccc23)cc1	4.72
CCOc1ccc(/N=C/N(C)C)cc1	9.24
Cn1cc([O-])nc1N	13.4
NCC(=O)O	9.67
Cn1cc(N)cn1	5.52
[O-]c1ccnc2cccnc12	10
CN(C)CCCCNC(=O)/C=N/[O-]	10.1
Nc1ccc2nc3ccccc3nc2c1	4.52
Oc1c(I)cc(I)c2cccnc12	2.7
CCCC[NH2+]CC/C(N)=N/O	3.75
OCCN(CCO)Cc1nc2ccccc2[nH]1	5.93
CCSC(=O)c1ccc(C)cc1	-4.2
[NH3+][C@@H](Cc1nc(I)[nH]c1I)C(=O)[O-]	2.72
CC(C)[C@@]12CN[C@@H](C(=O)[O-])[C@@H]1CC(=O)O2	7.8
CCN(CC)Cc1ccccc1OC	10.2
OCc1c[nH]cn1	6.38
CNCc1ccccn1	8.96

SMILES	pKa
Cc1nc([O-])n[nH]1	9.43
CCNCl	0.93
c1coc(CNCC[NH2+]Cc2ccco2)c1	5.74
CC(=O)N(C)c1ccccn1	2.01
C(CN1CCOCC1)C[NH+]1CCOCC1	6.25
COc1cccc(CN(C)C)c1O	8.42
C=CCSS/C(CCO)=C(/C)N(C=O)Cc1cnc(C)nc1N	5.65
CCOc1ccc2nc3cc([N+](=O)[O-])ccc3c(N)c2c1	7.5
CN(C)S(=O)(=O)c1ccc(N)cc1	1.53
O=Cc1cc(-c2ccccc2)nnc1NCCN1CCOCC1	6.89
N#CC1=CN2CCC1CC2	5.84
COc1ccc2[nH]cc(CC(C)N)c2c1 (centres undefined)	10.3
CC[C@]1(O)C[C@@H](C)N[C@@H]2CCCC[C@H]21	10.3
C=C(C)C(N)O (centres undefined)	8
COc1ccc2c3c1O[C@H]1CCC[C@H]4[C@@H]([C@@H]2O)N(C)CC[C@]314	9.41
Oc1cncc2ccccc12	4.8
CC(C)(C)N1CCCC(=O)C(O)CCC1 (centres undefined)	7.6
c1ccc2c(c1)[NH+]=C(c1ccncc1)[NH2+]2	1.96
Nc1c(Cl)cc([N+](=O)[O-])cc1Cl	-2.98
Nc1ncnc2c1ncn2C1CCCCC1	4.19
O=CC(c1ccccc1)c1ccccc1	9.42
N=C(N)NOCC(=O)[O-]	7.58
CCN(CCC#N)CCC#N	4.55
C#CCCN	9.23
O=[N+]([O-])c1cnc([O-])nc1[O-]	11.5
OCCc1ccncc1	5.68

SMILES	pKa
Fc1ccc2[nH]cnc2c1	5.11
CCc1cc(/N=N/c2ccc(N(C)C)cc2)ccc1C	2.59
OCCC[C@@H]1CC[C@@H]2CCCN12	11.5
N[C@@H](Cc1ccccc1)C(=O)[O-]	9.14
OCCNCCO	9.04
Nc1nc(NCO)nc(NCO)n1	4.65
Cc1cn(C)nc1C	3.56
COc1cnc2ccccc2n1	0.28
[O-]c1nncc2ccccc12	12
N/C(=N\O)c1ccccc1	4.97
Cc1ccc(NCCS)cc1	5.08
Cc1cc(Br)cc(C)c1N	3.54
c1ccc(-c2ccnc3c2ccc2cccnc23)cc1	4.9
CC(N)c1ccccc1 (centres undefined)	9.36
c1ccc(C(CCN2CCCCC2)c2ccccc2)cc1	8.96
c1ccc2nc3ccccc3cc2c1	5.48
C#CCN(CC#C)CC#C	3.04
CC(C)NCCCCCCNC(C)C	11.2
CCn1cnc2ccccc21	5.66
CCNCc1ccccc1	9.75
OCc1ccncc1	5.41
CC/N=c1\sc(-c2ccccc2)nn1CC	6.7
CCCN(C)C	9.62
CN(C)CCc1nnn[n-]1	9.39
O=C(O)c1ccc(O)c2ncccc12	4
Cn1c(=O)[nH]c2ncn(C)c2c1=O	0.5

SMILES	pKa
CCSC(=N)c1ccccc1	6.05
O=C(CN1CCOCC1)NCc1ccccc1	4.98
C1=C(c2nc3ccccc3s2)C2CCN1CC2	7.4
CCc1ccnc2c1ccc1cccnc12	5.44
Cn1cc[nH+]c1-c1ccccn1	0.4
O=c1[nH]c(=O)n(-c2ccccc2)[nH]1	-4.1
CCN(CC)CCN	9.93
CCCNC(C)C(=O)[O-] (centres undefined)	10.2
COc1cc(S(C)=O)ccc1-c1nc2nnccc2[nH]1 (centres undefined)	3.63
Nc1nnn[nH]1	1.81
OCCNc1nc(NCCO)nc(NCCO)n1	5.19
CN(C)N	7.16
CC(C)([Se-])CN	10.9
CC1=C(CC(C)NCC(O)c2ccc(N)cc2)CCC1(C)C (centres undefined)	9.01
CCCc1ncc[nH]1	8.02
COc1cccc(NCCS)c1	5.18
CC(C)(C)c1cccc(C(C)(C)C)n1	4.95
Cc1ncc2c(c1O)C(O)OC2 (centres undefined)	4.3
Cc1cc(C)n(Cc2cc(C)n(C)n2)n1	3.39
Cc1cc(-c2ccc([NH3+])c(C)c2)ccc1N	3.38
C[NH+](C)CCCCNc1c2ccccc2nc2cccc([N+](=O)[O-])c12	6.9
Cc1cnc2c(ccc3cccnc32)c1C	5.62
NCC[NH2+]CCc1ccccc1	6.59
O=C(N/[NH+]=C/c1ccccc1)c1ccncc1	1.82
Cn1c[nH+]c2cccc(N)c21	2.36
C[NH+](C)CCc1nnn[nH]1	-2.8
